Source: PubChem BioAssay AID2060912 (Molecular Pharmacology Branch, DTP, NCI, 2025)

Test system: HUVEC/MSC spheroids viability
Assay: Human HUVEC/MSC cell line growth inhibition [KRAS2];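 as to viability, T/C: percent of DMSO vehicle control luminescence so 100% = untreated viability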
Conditions: for IC50: curve of first compound; for viability, T/C: stronger effect = lower value
Method in brief: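 Spheroids of pooled-donor HUVEC and hMSC (passage ≤5) without tumour cells were treated with KRAS-pathway inhibitors alone and combined with targeted agents. Top concentration was at or near clinical Cmax, or 10 microM when Cmax was unknown, descending in half-log steps.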

[1] = second compound 0.00949 µM, first compound 0.0316 µM
[2] = second compound 0.00949 µM, first compound 0.1 µM
[3] = second compound 0.00949 µM, first compound 0.316 µM
[4] = second compound 0.00949 µM, first compound 1 µM
[5] = second compound 0.00949 µM, first compound 3.16 µM
[6] = second compound 0.00949 µM, first compound 10 µM
[7] = second compound 0.03 µM, first compound 0.0316 µM
[8] = second compound 0.03 µM, first compound 0.1 µM
[9] = second compound 0.03 µM, first compound 0.316 µM
[10] = second compound 0.03 µM, first compound 1 µM
[11] = second compound 0.03 µM, first compound 3.16 µM
[12] = second compound 0.03 µM, first compound 10 µM
[13] = second compound 0.0949 µM, first compound 0.0316 µM
[14] = second compound 0.0949 µM, first compound 0.1 µM
[15] = second compound 0.0949 µM, first compound 0.316 µM
[16] = second compound 0.0949 µM, first compound 1 µM
[17] = second compound 0.0949 µM, first compound 3.16 µM
[18] = second compound 0.0949 µM, first compound 10 µM
[19] = second compound 0.3 µM, first compound 0.0316 µM
[20] = second compound 0.3 µM, first compound 0.1 µM
[21] = second compound 0.3 µM, first compound 0.316 µM
[22] = second compound 0.3 µM, first compound 1 µM
[23] = second compound 0.3 µM, first compound 3.16 µM
[24] = second compound 0.3 µM, first compound 10 µM
[25] = second compound 0.949 µM, first compound 0.0316 µM
[26] = second compound 0.949 µM, first compound 0.1 µM
[27] = second compound 0.949 µM, first compound 0.316 µM
[28] = second compound 0.949 µM, first compound 1 µM
[29] = second compound 0.949 µM, first compound 3.16 µM
[30] = second compound 0.949 µM, first compound 10 µM
[31] = second compound 3 µM, first compound 0.0316 µM
[32] = second compound 3 µM, first compound 0.1 µM
[33] = second compound 3 µM, first compound 0.316 µM
[34] = second compound 3 µM, first compound 1 µM
[35] = second compound 3 µM, first compound 3.16 µM
[36] = second compound 3 µM, first compound 10 µM

`CC1(C)CCC(CN2CCN(c3ccc(C(=O)NS(=O)(=O)c4ccc(NCC5CCOCC5)c([N+](=O)[O-])c4)c(Oc4cnc5[nH]ccc5c4)c3)CC2)=C(c2ccc(Cl)cc2)C1` + C=CC(=O)N1CCN(c2nc(OCC3CCCN3C)nc3c2CCN(c2cccc4cccc(C)c24)C3)CC1CC#N was tested, and the IC50 (second compound 0.00949 µM) was 5.12 µM, the IC50 (second compound 0.03 µM) was 4.76 µM and the IC50 (second compound 0.0949 µM) was 4.68 µM. It also gave an IC50 (second compound 0.3 µM) of 3.93 µM, an IC50 (second compound 0.949 µM) of 3.55 µM and an IC50 (second compound 3 µM) of 3.41 µM. It also gave a viability, T/C [1] of 105%, a viability, T/C [2] of 86.2% and a viability, T/C [3] of 96.9%. For the same molecule, the viability, T/C [4] was 91.4%, the viability, T/C [5] was 83.5% and the viability, T/C [6] was 3.48%. For the same molecule, the viability, T/C [7] was 99.3%, the viability, T/C [8] was 92% and the viability, T/C [9] was 111%. It also gave a viability, T/C [10] of 94.4%, a viability, T/C [11] of 76% and a viability, T/C [12] of 3.1%. It also gave a viability, T/C [13] of 83.1%, a viability, T/C [14] of 103% and a viability, T/C [15] of 84.1%. The viability, T/C [16] was 94.6%, the viability, T/C [17] was 75.1% and the viability, T/C [18] was 1.65%. The viability, T/C [19] was 73.4%, the viability, T/C [20] was 75.9% and the viability, T/C [21] was 78.7%. It also gave a viability, T/C [22] of 96.8%, a viability, T/C [23] of 61.3% and a viability, T/C [24] of 1.21%. It also gave a viability, T/C [25] of 67.6%, a viability, T/C [26] of 80.8% and a viability, T/C [27] of 72%. The viability, T/C [28] was 87.5%, the viability, T/C [29] was 55.3% and the viability, T/C [30] was 3.31%. The viability, T/C [31] was 81%, the viability, T/C [32] was 86.1% and the viability, T/C [33] was 94.8%. The viability, T/C [34] was 71.2%, the viability, T/C [35] was 54.7% and the viability, T/C [36] was 0.24%.
`CCN1CCN(Cc2ccc(Nc3ncc(F)c(-c4cc(F)c5nc(C)n(C(C)C)c5c4)n3)nc2)CC1` + CC1OCC2(CCN(c3cnc(Sc4ccnc(N)c4Cl)c(N)n3)CC2)C1N was tested, and the IC50 (second compound 0.0316 µM) was > 1 µM, the IC50 (second compound 0.1 µM) was > 1 µM and the IC50 (second compound 0.316 µM) was > 1 µM. The IC50 (second compound 1 µM) was > 1 µM, the IC50 (second compound 3.16 µM) was > 1 µM and the IC50 (second compound 10 µM) was > 1 µM. The viability, T/C (second compound 0.0316 µM, first compound 0.00316 µM) was 105%, the viability, T/C (second compound 0.0316 µM, first compound 0.01 µM) was 105% and the viability, T/C (second compound 0.0316 µM, first compound 0.0316 µM) was 95.6%. For the same molecule, the viability, T/C (second compound 0.0316 µM, first compound 0.1 µM) was 111%, the viability, T/C (second compound 0.0316 µM, first compound 0.316 µM) was 124% and the viability, T/C (second compound 0.0316 µM, first compound 1 µM) was 121%. It also gave a viability, T/C (second compound 0.1 µM, first compound 0.00316 µM) of 111%, a viability, T/C (second compound 0.1 µM, first compound 0.01 µM) of 105% and a viability, T/C (second compound 0.1 µM, first compound 0.0316 µM) of 117%. For the same molecule, the viability, T/C (second compound 0.1 µM, first compound 0.1 µM) was 93.4%, the viability, T/C (second compound 0.1 µM, first compound 0.316 µM) was 123% and the viability, T/C (second compound 0.1 µM, first compound 1 µM) was 114%. The viability, T/C (second compound 0.316 µM, first compound 0.00316 µM) was 108%, the viability, T/C (second compound 0.316 µM, first compound 0.01 µM) was 108% and the viability, T/C (second compound 0.316 µM, first compound 0.0316 µM) was 102%. It also gave a viability, T/C (second compound 0.316 µM, first compound 0.1 µM) of 96.9%, a viability, T/C (second compound 0.316 µM, first compound 0.316 µM) of 117% and a viability, T/C (second compound 0.316 µM, first compound 1 µM) of 114%. The viability, T/C (second compound 1 µM, first compound 0.00316 µM) was 94.3%, the viability, T/C (second compound 1 µM, first compound 0.01 µM) was 95.9% and the viability, T/C (second compound 1 µM, first compound 0.0316 µM) was 85.6%. For the same molecule, the viability, T/C (second compound 1 µM, first compound 0.1 µM) was 96%, the viability, T/C (second compound 1 µM, first compound 0.316 µM) was 102% and the viability, T/C (second compound 1 µM, first compound 1 µM) was 114%. It also gave a viability, T/C (second compound 3.16 µM, first compound 0.00316 µM) of 81.1%, a viability, T/C (second compound 3.16 µM, first compound 0.01 µM) of 84.8% and a viability, T/C (second compound 3.16 µM, first compound 0.0316 µM) of 88.2%. It also gave a viability, T/C (second compound 3.16 µM, first compound 0.1 µM) of 80%, a viability, T/C (second compound 3.16 µM, first compound 0.316 µM) of 96.2% and a viability, T/C (second compound 3.16 µM, first compound 1 µM) of 87.2%. The viability, T/C (second compound 10 µM, first compound 0.00316 µM) was 74.8%, the viability, T/C (second compound 10 µM, first compound 0.01 µM) was 66% and the viability, T/C (second compound 10 µM, first compound 0.0316 µM) was 67.2%. It also gave a viability, T/C (second compound 10 µM, first compound 0.1 µM) of 62.3%, a viability, T/C (second compound 10 µM, first compound 0.316 µM) of 84.1% and a viability, T/C (second compound 10 µM, first compound 1 µM) of 91.2%.
In the case of `CC1OCC2(CCN(c3cnc(Sc4ccnc(N)c4Cl)c(N)n3)CC2)C1N` (stereo unspecified) + C=CC(=O)N1CCN(c2nc(OCC3CCCN3C)nc3c2CCN(c2cccc4cccc(C)c24)C3)CC1CC#N, the IC50 (second compound 0.00949 µM) is reported as > 10 µM, the IC50 (second compound 0.03 µM) is reported as > 10 µM and the IC50 (second compound 0.0949 µM) is reported as > 10 µM. The IC50 (second compound 0.3 µM) was > 10 µM, the IC50 (second compound 0.949 µM) was 5.36 µM and the IC50 (second compound 3 µM) was 0.387 µM. It also gave a viability, T/C [1] of 112%, a viability, T/C [2] of 102% and a viability, T/C [3] of 99.9%. It also gave a viability, T/C [4] of 82.3%, a viability, T/C [5] of 71.1% and a viability, T/C [6] of 73.6%. It also gave a viability, T/C [7] of 109%, a viability, T/C [8] of 116% and a viability, T/C [9] of 89.8%. For the same molecule, the viability, T/C [10] was 87.3%, the viability, T/C [11] was 66% and the viability, T/C [12] was 67.9%. For the same molecule, the viability, T/C [13] was 98.5%, the viability, T/C [14] was 96.4% and the viability, T/C [15] was 90%. The viability, T/C [16] was 79.5%, the viability, T/C [17] was 74.1% and the viability, T/C [18] was 66.5%. For the same molecule, the viability, T/C [19] was 86.7%, the viability, T/C [20] was 90.7% and the viability, T/C [21] was 89.4%. For the same molecule, the viability, T/C [22] was 69.1%, the viability, T/C [23] was 72.9% and the viability, T/C [24] was 56.1%. It also gave a viability, T/C [25] of 63%, a viability, T/C [26] of 79.5% and a viability, T/C [27] of 83.2%. For the same molecule, the viability, T/C [28] was 71.8%, the viability, T/C [29] was 60.4% and the viability, T/C [30] was 37.9%. For the same molecule, the viability, T/C [31] was 55.4%, the viability, T/C [32] was 67.6% and the viability, T/C [33] was 48%. It also gave a viability, T/C [34] of 35.7%, a viability, T/C [35] of 4.99% and a viability, T/C [36] of 0.43%.
